What was measured:
[1] = tested on: A549 cells infected with R. delemar; test: R. delemar-induced A549 cell damage (Pierce LDH assay); format: cell-based, human; settings: for R. delemar-induced damage of A549 alveolar epithelial cells (LDH assay): pre-treated 1 h, inhibitors present throughout, Inh III 10, AG1478 10 μM, AG825 50 μM, 24 h infection (FIG. 6)
Description: Measurement of R. delemar-induced host cell damage. R. delemar-induced A549 cell damage was quantified using the Pierce LDH Assay with slight modifications to the manufacturer's protocol. Briefly, A549 cells were grown in 96-well tissue culture plates for 18-24 hours. […] For controls, host cells will be incubated with DMSO (the solvent used to reconstitute the inhibitor) or 25 μg/ml of mouse IgG antibody in parallel. After 24 hours of incubation at 37° C., 50 μl of the cell culture supernatant was collected from uninfected, infected, and fungi-only control wells and transferred to a 96 well plate to assay for LDH activity. Lysis buffer was added to all infected wells and incubated for 45 min at 37° C. After lysis, 50 μl of cell culture supernatant was transferred to a 96 well plate and used for the LDH Assay Kit per protocol. LDH release was calculated as follows: % Cytotoxicity=[Experimental release−Fungal Cells Spontaneous Control−Host Cells Spontaneous Control]/[Host Cell Maximum Control−Fungal Cells Maximum Control−Host Cells Spontaneous Control]×100. LDH is a cytosolic enzyme but will be released into the cell culture medium upon cell membrane damage. The amount of extracellular LDH is proportional to the amount of cell damage.
(§1) R. delemar-induced A549 cell damage was quantified using the Pierce LDH assay, with slight modifications to the manufacturer's protocol. Briefly, A549 cells were grown in 96-well tissue culture plates for 18 to 24 h. Cells were then pretreated for 1 h with inhibitor and infected with 1×10^6-2×10^6 germlings suspended in 150 μl F-12K plus 10% FBS. For controls, host cells were incubated with the appropriate amount of diluent used to reconstitute the in parallel. After 24 h of incubation at 37° C., 50 μl of the cell culture supernatant was collected from uninfected, infected, and fungus-only control wells and transferred to a 96-well plate to assay for LDH activity. Lysis buffer was added to all infected wells, and the mixture was incubated for 45 min at 37° C. After lysis, 50 μl of cell culture supernatant was transferred to a 96-well plate and used for the LDH assay kit per the protocol. LDH release was calculated as follows: % cytotoxicity=[(experimental release−fungal cell spontaneous control−host cell spontaneous control)/(host cell maximum control−fungal cell maximum control−host cell spontaneous control)]×100. LDH is a cytosolic enzyme but will be released into the cell culture medium upon cell membrane damage. The amount of extracellular LDH is proportional to the amount of cell damage.

[2] = tested on: A549 alveolar epithelial cells infected with R. delemar spores; test: Measurement of host cell endocytosis of R. delemar by A549 cells (Uvitex differential fluorescence); format: cell-based, human; settings: for ability of A549 cells to endocytose R. delemar spores: Ahr inhibitor or Src inhibitor
Description: Measurement of host cell endocytosis. 12-mm glass coverslips were seeded with A549 alveolar epithelial cells. […] For controls, host cells will be incubated with DMSO (the solvent used to reconstitute the inhibitor) or 25 μg/ml mouse IgG antibody in parallel. Host cells were then infected with 2×10^5 R. delemar spores. After incubation for 3 h, cells were fixed in 3% paraformaldehyde and stained for 1 h with 1% Uvitex, which specifically binds to chitin in the fungal cell wall. After washing with PBS, coverslips were mounted on a glass slide with a drop of ProLong Gold anti-fade reagent (Molecular Probes) and sealed. The total number of cell-associated organisms (i.e. fungi adhering to the monolayer) per high-powered field were determined by phase-contrast microscopy. The same field will be examined by epifluorescence microscopy, and the number of brightly fluorescent, uninternalized fungi were determined. The number of endocytosed organisms was calculated by subtracting the number of fluorescent fungi from the total number of visible fungi. At least 400 organisms were counted per treatment group in at least 15 different fields per coverslip. Experiments were performed in duplicate or triplicate on at least two separate days.
12-mm glass coverslips in 12 well dishes will be seeded with A549 alveolar epithelial cells. Cells were then pre-treated 1 h with inhibitors. For controls, host cells were incubated with the appropriate amount of diluent used to reconstitute the inhibitor in parallel. Host cells were then infected with 2×10^6 Rdelemar. After incubation for 3 h, cells were fixed in 3% paraformaldehyde and stained for 1 h with 1% Uvitex, which specifically binds to chitin in the fungal cell wall. After washing with PBS, coverslips were mounted on a glass slide with a drop of ProLong Gold anti-fade reagent (Molecular Probes) and sealed. The total number of cell-associated organisms (i.e., fungi adhering to the monolayer) per high-powered field was determined by phase-contrast microscopy. The same exact field was examined by epifluorescence microscopy, and the number of brightly fluorescent, uninternalized fungi will be determined. The number of endocytosed organisms is calculated by subtracting the number of fluorescent organisms from the total number of visible organisms. At least 400 organisms were counted in at least 15 different fields per coverslip. Experiments were performed in duplicate on separate days. Data will be expressed as median f interquartile range.

[3] = tested on: A549 cells infected with C. bertholletiae; test: C. bertholletiae-induced damage of A549 cells (LDH assay); format: cell-based, human; settings: 25 μM Mifepristone overnight and/or 25 μM Gefitinib 1 h, 24 h infection (FIG. 14)
[4] = tested on: A549 cells infected with R. oryzae; test: R. oryzae-induced damage of A549 cells (LDH assay); format: cell-based, human; settings: 25 μM Mifepristone overnight and/or 25 μM Gefitinib 1 h, 24 h infection (FIG. 14)
Description: as §1, with “Cells were then pretreated for 1 h with inhibitor and infected with 1×10^6-2×10^6 germlings suspended in 150 μl F-12K plus 10% FBS.” left out

[5] = tested on: A549 cells infected with L. corymbifera; test: L. corymbifera-induced damage of A549 cells (LDH assay); format: cell-based, human; settings: 25 μM Mifepristone overnight and/or 25 μM Gefitinib 1 h, 24 h infection (FIG. 14)
[6] = tested on: A549 cells infected with M. circinelloides; test: M. circinelloides-induced damage of A549 cells (LDH assay); format: cell-based, human; settings: 25 μM Mifepristone overnight and/or 25 μM Gefitinib 1 h, 24 h infection (FIG. 14)
[7] = tested on: HUVECs infected with R. delemar; settings: inhibition of PDGFR phosphorylation; cited from earlier work
R. delemar = test: Neutropenic mouse model of pulmonary mucormycosis, survival; format: in vivo, mice
Description: Murine models of Mucormycosis. Male ICR mice (20-25 g from Envigo) were immunosuppresed by cyclophosphamide (200 mg/kg administered intraperotenually [i.p]) and cortisone acetate (500 mg/kg, adminstered subcutaneously) given on days −2, +3, and +9 relative to infection. […] To control for bacterial infection, immunosuppressed mice received 50 mg/L Baytrial (enrofloxacin: Bayer, Leverkusen, Germany) ad libitum on Day −3 thorough Day 0, after which Baytril was replaced with daily ceftazidime (5 mg/mouse) treatment adminstered subcutaneously through day+13 days post infection. Mice were infected with 2.5×10^5 spores of R. delemar 99-880 in 25 μL PBS given intratracheally as previously described (Luo G, Gebremariam T, Lee H, French S W, Wiederhold N P, Patterson T F, Filler S G, Ibrahim A S. 2013. Efficacy of liposomal amphotericin B and posaconazole in intratracheal models of murine mucormycosis. Antimicrobial agents and chemotherapy 57:3340-7). […] Placebo mice received DMA:PEG300. Survival of mice served as the primary endpoint with moribund mice humanely euthanized. To determine effect of treatment on tissue fungal burden mice were immunosuppressed and infected as above. Gefitinib treatment started 4 post infection and continued through Day +3. On Day +4, mice were sacrificed and lungs and brains, representing primary and secondary target organs (Luo G, Gebremariam T, Lee H, French S W, Wiederhold N P, Patterson T F, Filler S G, Ibrahim A S. 2013. Efficacy of liposomal amphotericin B and posaconazole in intratracheal models of murine mucormycosis. Antimicrobial agents and chemotherapy 57:3340-7), were collected and processed for tissue fungal burden by qPCR (Ibrahim A S, Bowman J C, Avanessian V, Brown K, Spellberg B, Edwards J E, Jr., Douglas C M. 2005. Caspofungin inhibits Rhizopus oryzae 1,3-beta-D-glucan synthase, lowers burden in brain measured by quantitative PCR, and improves survival at a low but not a high dose during murine disseminated zygomycosis. Antimicrobial agents and chemotherapy 49:721-7.) Values are expressed as Log10 spore equivalents per gram tissue.
Statistical Analyses. In vitro experiments were performed in triplicate on two or three separate days. Data were expressed as median±interquartile range. Treatment groups were compared to controls using the Wilcoxon rank-sum test and P values <0.05 were considered significant. For the murine studies, survival of mice was analyzed using the Log Rank test, whereas differences in tissue fungal burden were analyzed by the Wilcoxon Rank Sum test using Graph pad Prism 6. P values of <0.05 were considered significant.

COc1cc(/C=C(\C#N)C(N)=O)cc(CSc2nc3ccccc3s2)c1O [AG825]
R. delemar-induced damage of A549 alveolar epithelial cells (LDH assay) [1]: greater reduction in damage

COc1cc2ncnc(Nc3cccc(Cl)c3)c2cc1OC [AG1478]
R. delemar-induced damage of A549 alveolar epithelial cells (LDH assay) [1]: greater reduction in damage

Cc1ccccc1N=Nc1ccc(NC(=O)c2ccnn2C)c(C)c1 [CH-223191]
ability of A549 cells to endocytose R. delemar spores [2]: Neither of the inhibitors altered

CC#C[C@]1(O)CC[C@H]2[C@@H]3CCC4=CC(=O)CCC4=C3[C@@H](c3ccc(N(C)C)cc3)C[C@@]21C [Mifepristone]
C. bertholletiae-induced damage [3]: a significant decrease in damage was not seen
R. oryzae-induced damage [4]: a significant decrease in damage was not seen
L. corymbifera-induced damage [5]: significantly decreased
M. circinelloides-induced damage [6]: a significant decrease in damage was not seen
R. delemar invasion / endocytosis ([2]; Example 3, 25 μM Mifepristone overnight and/or 25 μM Gefitinib 1 h, 3 h infection (FIG. 13)): reduction
R. delemar-induced damage of alveolar epithelial cells (LDH assay) ([1]; Example 3, Mifepristone 25 / Gefitinib 25, 24 h infection, vs vehicle (FIG. 12)): decrease

COc1cc2ncnc(N3CCN(C(=O)Nc4ccc(Oc5ccccc5)cc4)CC3)c2cc1OC [PDGFR tyrosine kinase inhibitor III]
R. delemar-induced damage of HUVECs [7]: significantly reduces
R. delemar-induced damage of A549 alveolar epithelial cells (LDH assay) [1]: modestly but significantly reduces

CC[C@@H]([C@H](C)O)n1ncn(-c2ccc(N3CCN(c4ccc(OC[C@@H]5CO[C@@](Cn6cncn6)(c6ccc(F)cc6F)C5)cc4)CC3)cc2)c1=O [posaconazole]
18-day survival (R. delemar; delayed treatment beginning 30 h post infection for 6 consecutive days, 10 mg/kg gefitinib, 20 mg/kg posaconazole or both): 0%
protection from pulmonary mucormycosis, delayed administration (R. delemar; treatment delayed for 30 h post infection, administered alone): did not

EGF [epidermal growth factor, EGFR ligand]
R. delemar-induced damage with EGF addition (LDH assay) ([1]; A549 cells pretreated (and cotreated) with EGF 1 h prior to 24 h infection (FIG. 15)): no increase in damage was observed

Src Kinase Inhibitor I I
ability of A549 cells to endocytose R. delemar spores [2]: Neither of the inhibitors altered
